Assay results published in patent US8119795B2, “Triazole derivatives II” (Merck Patent GmbH, priority 2006, dated 2012).

Target: T1, Recombinant human HSP90α (Homo sapiens, UniProt P07900)
T1 construct: host or cells: E. coli
Assay: HSP90 radioligand filter binding test ([3H]17AAG competition)
Conditions: [3H]17AAG 0.08 μM, HSP90 1.5 μg/assay, 22° C., 30 min; read-out: IC50* (HSP90 inhibition)
Description: Test Method for the Measurement of HSP90 Inhibitors
In the specific case, a radioligand filter binding test is used. The radioligand used here is tritium-labelled 17-allylaminogeldanamycin, [3H]17AAG. This filter binding test allows a targeted search for inhibitors which interfere with the ATP binding site.
Recombinant human HSP90α (E. coli expressed, 95% purity);
HEPES filter buffer (50 mM HEPES, pH 7.0, 5 mM MgCl2, BSA 0.01%)
Multiscreen F B (1 μm) filter plate (Millipore, MAFBNOB 50).
The 96-well microtitre filter plates are firstly irrigated and coated with 0.1% of polyethylenimine.
The test is carried out under the following conditions:
Reaction temperature 22° C.
Reaction time: 30 min., shaking at 800 rpm
50 mM HEPES HCl, pH 7.0, 5 mM MgCl2, 0.01% (w/v) BSA
At the end of the reaction, the supernatant in the filter plate is removed by suction with the aid of a vacuum manifold (Multiscreen Separation System, Millipore), and the filter is washed twice.
The filter plates are then measured in a beta counter (Microbeta, Wallac) with scintillator (Microscint 20, Packard).
“% of control” is determined from the “counts per minutes” values and the IC50 value of a compound is calculated therefrom.

| SMILES | IC50 [nM] |
| --- | --- |
| CN(Cc1ccco1)C(=O)c1cc(-c2nnc(O)n2-c2cccc(Cl)c2)c(O)cc1O [Compound A58a, 5-{2,4-Dihydroxy-5-[N-(furan-2-ylmethyl)-N-methylaminocarbonyl]phenyl}-4-(3-chlorophenyl)-3-hydroxy-4H-1,2,4-triazole] | 10 to 1000 |
| COc1cccc(-n2c(O)nnc2-c2cc(C(=O)N(C)Cc3ccco3)c(O)cc2O)c1 [Compound A62b, 5-{2,4-Dihydroxy-5-[N-(furan-2-ylmethyl)-N-methylaminocarbonyl]phenyl}-4-(3-methoxyphenyl)-3-hydroxy-4H-1,2,4-triazole] | 10 to 1000 |
| Cc1ccccc1-n1c(-c2cc(C(=O)N(C)Cc3cccc(OCCN4CCOCC4)c3)c(O)cc2O)n[nH]c1=O [Compound A116c, 2,4-Dihydroxy-N-methyl-N-[3-(2-morpholin-4-ylethoxy)benzyl]-5-(5-oxo-4-o-tolyl-4,5-dihydro-1H-1,2,4-triazol-3-yl)benzamide] | 1000 to 10000 |
| Cc1ccccc1-n1c(O)nnc1-c1cc(C(=O)N(C)Cc2ccco2)c(O)cc1O [Compound A57, 5-{2,4-Dihydroxy-5-[N-(furan-2-ylmethyl)-N-methylaminocarbonyl]phenyl}-4-(2-methylphenyl)-3-hydroxy-4H-1,2,4-triazole] | 10 to 1000 |
| CN(Cc1ccco1)C(=O)c1cc(-c2nnc(O)n2-c2ccc(Cl)cc2)c(O)cc1O [Compound A58c, 5-{2,4-Dihydroxy-5-[N-(furan-2-ylmethyl)-N-methylaminocarbonyl]phenyl}-4-(4-chlorophenyl)-3-hydroxy-4H-1,2,4-triazole] | 10 to 1000 |
| CN(Cc1ccco1)C(=O)c1cc(-c2nnc(O)n2-c2ccccc2)c(O)cc1O [Compound A57a, 5-{2,4-Dihydroxy-5-[N-(furan-2-ylmethyl)-N-methylaminocarbonyl]phenyl}-4-phenyl-3-hydroxy-4H-1,2,4-triazole] | 10 to 1000 |
| CN(Cc1ccco1)C(=O)c1cc(-c2nnc(O)n2-c2cccc(F)c2)c(O)cc1O [Compound A59a, 5-{2,4-Dihydroxy-5-[N-(furan-2-ylmethyl)-N-methylaminocarbonyl]phenyl}-4-(3-fluorophenyl)-3-hydroxy-4H-1,2,4-triazole] | 10 to 1000 |
| Cc1ccccc1-n1c(O)nnc1-c1cc(C(=O)N(C)Cc2cccc(F)c2)c(O)cc1O [Compound A15, 5-{2,4-Dihydroxy-5-[N-(3-fluorobenzyl)-N-methylaminocarbonyl]phenyl}-4-(2-methylphenyl)-3-hydroxy-4H-1,2,4-triazole] | 10 to 1000 |
| Cc1cccc(-n2c(O)nnc2-c2cc(C(=O)N(C)Cc3ccco3)c(O)cc2O)c1 [Compound A57b, 5-{2,4-Dihydroxy-5-[N-(furan-2-ylmethyl)-N-methylaminocarbonyl]phenyl}-4-(3-methylphenyl)-3-hydroxy-4H-1,2,4-triazole] | 10 to 1000 |
| COc1cc(O)c(-c2nnc(O)n2-c2ccccc2C)cc1C(=O)N(C)Cc1ccccc1 [Compound A116a, 5-[2-Hydroxy-4-methoxy-5-(N-benzyl-N-methylaminocarbonyl)phenyl]-4-(2-methylphenyl)-3-hydroxy-4H-1,2,4-triazole] | 10 to 1000 |
| CCc1ccccc1-n1c(O)nnc1-c1cc(C(=O)N(C)Cc2ccco2)c(O)cc1O [Compound A62c, 5-{2,4-Dihydroxy-5-[N-(furan-2-ylmethyl)-N-methylaminocarbonyl]phenyl}-4-(2-ethylphenyl)-3-hydroxy-4H-1,2,4-triazole] | 10 to 1000 |

The next lines start with the values.

| IC50 [nM] | SMILES |
| --- | --- |
| 10 to 1000 | CN(Cc1ccco1)C(=O)c1cc(-c2nnc(O)n2-c2ccccc2Cl)c(O)cc1O [Compound A58, 5-{2,4-Dihydroxy-5-[N-(furan-2-ylmethyl)-N-methylaminocarbonyl]phenyl}-4-(2-chlorophenyl)-3-hydroxy-4H-1,2,4-triazole] |
| 10 to 1000 | CN(Cc1ccco1)C(=O)c1cc(-c2nnc(O)n2-c2cc(Cl)cc(Cl)c2)c(O)cc1O [Compound A58b, 5-{2,4-Dihydroxy-5-[N-(furan-2-ylmethyl)-N-methylaminocarbonyl]phenyl}-4-(3,5-dichlorophenyl)-3-hydroxy-4H-1,2,4-triazole] |
| 10 to 1000 | Cc1ccccc1-n1c(O)nnc1-c1cc(C(=O)N(C)Cc2ccccc2Cl)c(O)cc1O [Compound A27, 5-{2,4-Dihydroxy-5-[N-(2-chlorobenzyl)-N-methylaminocarbonyl]phenyl}-4-(2-methylphenyl)-3-hydroxy-4H-1,2,4-triazole] |
| 10 to 1000 | Cc1ccccc1-n1c(O)nnc1-c1cc(C(=O)N(C)Cc2ccccc2F)c(O)cc1O [Compound A9, 5-{2,4-Dihydroxy-5-[N-(2-fluorobenzyl)-N-methylaminocarbonyl]phenyl}-4-(2-methylphenyl)-3-hydroxy-4H-1,2,4-triazole] |
| 10 to 1000 | CCc1cccc(-n2c(O)nnc2-c2cc(C(=O)N(C)Cc3ccco3)c(O)cc2O)c1 [Compound A59b, 5-{2,4-Dihydroxy-5-[N-(furan-2-ylmethyl)-N-methylaminocarbonyl]phenyl}-4-(3-ethylphenyl)-3-hydroxy-4H-1,2,4-triazole] |
| 10 to 1000 | COc1cccc(CN(C)C(=O)c2cc(-c3nnc(O)n3-c3ccccc3C)c(O)cc2O)c1 [Compound A6a, 5-{2,4-Dihydroxy-5-[N-(3-methoxybenzyl)-N-methylaminocarbonyl]phenyl}-4-(2-methylphenyl)-3-hydroxy-4H-1,2,4-triazole] |
| 10 to 1000 | Cc1ccccc1-n1c(O)nnc1-c1cc(C(=O)N(C)Cc2ccc(F)cc2)c(O)cc1O [Compound A12, 5-{2,4-Dihydroxy-5-[N-(4-fluorobenzyl)-N-methylaminocarbonyl]phenyl}-4-(2-methylphenyl)-3-hydroxy-4H-1,2,4-triazole] |
| 10 to 1000 | COc1ccc(Cl)cc1CN(C)C(=O)c1cc(-c2nnc(O)n2-c2ccccc2C)c(O)cc1O [Compound A51, 5-{2,4-Dihydroxy-5-[N-(3-chloro-6-methoxybenzyl)-N-methylaminocarbonyl]phenyl}-4-(2-methylphenyl)-3-hydroxy-4H-1,2,4-triazole] |
| 10 to 1000 | Cc1ccccc1-n1c(O)nnc1-c1cc(C(=O)N(C)Cc2cccc(Cl)c2)c(O)cc1O [Compound A24, 5-{2,4-Dihydroxy-5-[N-(3-chlorobenzyl)-N-methylaminocarbonyl]phenyl}-4-(2-methylphenyl)-3-hydroxy-4H-1,2,4-triazole] |
